According to patent publication US10208033B2, “β-carboline, dihydro-β-carboline and tetrahydro-β-carboline alkaloid derivatives and preparation methods same and use in aspects of preventing and treating plant viruses, fungicides and insecticides” (NANKAI UNIVERSITY, priority 2013, dated 2019):
Structures can show the parent of a compound that is named as a salt.

Tests used:
[1] = system: armyworms; type: in vivo; conditions: concentration 600 mg/kg
[2] = system: Colletotrichum orbiculare; assay: Fungicidal (bactericidal) activity in vitro, PDA colony diameter; type: cell-based; conditions: 50 mg/kg
[3] = system: potato late blight; assay: microbe, parasite or virus in culture; type: cell-based
[4] = system: tobacco mosaic virus (TMV); assay: Anti-TMV in vitro effect (half-leaf soaking); type: cell-based, tobacco mosaic virus (host Nicotiana tabacum L.cv.Xanthi NN)
[5] = system: Macrophoma kawatsukai; assay: Fungicidal (bactericidal) activity in vitro, PDA colony diameter; type: cell-based; conditions: 50 mg/kg
[6] = system: Alternaria solani; assay: as above; type: cell-based; conditions: 50 mg/kg
[7] = system: tobacco mosaic virus (TMV); assay: Anti-TMV in vivo therapeutic effect; parameters: species or system tobacco mosaic virus (host Nicotiana tabacum L.cv.Xanthi NN)
[8] = system: Rhizoctonia solani; assay: Fungicidal (bactericidal) activity in vitro, PDA colony diameter; type: cell-based; conditions: 50 mg/kg
[9] = system: cotton bollworms; assay: whole plant or invertebrate; conditions: for Cotton bollworm Mortality (%): concentration 600 mg/kg
Method: Experimental method of cotton bollworms: feed and drug mixing method: measure 3 mL of prepared solution and add it to about 27 g of newly prepared feed, thereby obtaining needed concentration through dilution by 10 times.

[10] = system: Rhizoctonia cereali; assay: Fungicidal (bactericidal) activity in vitro, PDA colony diameter; type: cell-based; conditions: 50 mg/kg
[11] = system: cucumber fusarium wilt; assay: as above; type: cell-based; conditions: 50 mg/kg
[12] = system: Cercospora arachidicola; assay: as above; type: cell-based; conditions: 50 mg/kg
[13] = system: tobacco mosaic virus (TMV); assay: Anti-TMV activity, overall statements on Table 1; type: in vivo, tobacco mosaic virus (host Nicotiana tabacum L.cv.Xanthi NN); conditions: 100 μg/mL versus ningnanmycin at 100 μg/mL
[14] = system: mosquito larvae; assay: whole plant or invertebrate; conditions: for activity against culex pipiens larvae (in words): at 5 mg/kg
In short: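 Early fourth-instar Culex pipiens pallens larvae from an indoor colony, 10 per beaker, exposed to test compound at 5 ppm in water, diluted from a 1000 ppm acetone mother solution. Blank: water containing 0.5 mL test solvent.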

[15] = system: Phytophthora capsici; assay: Fungicidal (bactericidal) activity in vitro, PDA colony diameter; type: cell-based; conditions: 50 mg/kg
[16] = system: corn borers; assay: whole plant or invertebrate; conditions: read-out: Corn borer Mortality (%)
[17] = system: tobacco mosaic virus (TMV); assay: Anti-TMV in vivo inactivation; parameters: species or system tobacco mosaic virus (host Nicotiana tabacum L.cv.Xanthi NN)
[18] = system: tobacco mosaic virus (TMV); assay: Anti-TMV in vivo protective effect; parameters: species or system tobacco mosaic virus (host Nicotiana tabacum L.cv.Xanthi NN)
[19] = system: Botrytis cinerea; assay: Fungicidal (bactericidal) activity in vitro, PDA colony diameter; type: cell-based; conditions: 50 mg/kg
[20] = system: Fusarium fujikuroi; assay: as above; type: cell-based; conditions: 50 mg/kg
[21] = system: armyworms, cotton bollworms and corn borers; assay: Insecticidal activity, overall statements on Table 3; type: in vivo; conditions: Table 3, 600 mg/kg
[22] = system: Fusarium graminearumt; assay: microbe, parasite or virus in culture; type: cell-based; conditions: for Bactericidal activity (%) Fusarium graminearumt: 50 mg/kg
[23] = system: Bipolaria maydis; assay: organism not typed; type: cell-based; conditions: for Bactericidal activity (%) Bipolaria maydis: 50 mg/kg
[24] = system: Sclerotinia scleotiorum; assay: Fungicidal (bactericidal) activity in vitro, PDA colony diameter; type: cell-based; conditions: 50 mg/kg
[25] = system: corn borers; conditions: concentration 600 mg/kg
[26] = system: 14 kinds of fungi; assay: Bactericidal activity, overall statements on Table 2; type: cell-based; conditions: Table 2, 50 mg/kg
From the text: In vitro test method (Alternaria solani is taken for example. Alternatively, other fungi may be used): Inoculate Alternaria solani to PDA culture medium, culture it for 7 days, prepare […] bacteria plates from colony edge by a puncher, inoculate […] and drug-free PDA culture media, culture them for 4 days, measure colony diameter, compare with the control group and calculate the inhibition percentage of the drug.

[27] = Culex pipiens, 24 h, read-out: Mosquito larvae Mortality (%)

SMILES: CCOC(=O)[C@@H]1Cc2c([nH]c3ccccc23)[C@H](C)N1 [Ib-13, (1S, 3S)-1-methyl-2,3,4,9-tetrahydropyridino [3,4-b] indol-3-ethyl formate]
- Armyworm Mortality (%) [1]: 60%
- inhibition of growth at 50 mg/kg ([2]; Colletotrichum orbiculare, 96 h): 38.1%
- inhibition of growth at 50 mg/kg ([3]; Phytophthora infestans, 96 h, read-out: Bactericidal activity (%) potato late blight): 30%
- inhibition at 100 µg/mL ([4]; Tobacco mosaic virus, treatment dose 100 μg/mL, read-out: Relative inhibition rate (%) In vitro activity): 21.8%
- inhibition at 500 µg/mL ([4]; Tobacco mosaic virus, treatment dose 500 μg/mL, read-out: Relative inhibition rate (%) In vitro activity): 46.5%
- inhibition at 50 mg/kg [5]: 29.4%
- inhibition of growth at 50 mg/kg ([6]; Alternaria solani, 96 h): 55.6%
- inhibition at 100 µg/mL ([7]; Tobacco mosaic virus, treatment dose 100 μg/mL, read-out: Relative inhibition rate (%) In vivo therapy): 17.5%
- inhibition at 500 µg/mL ([7]; Tobacco mosaic virus, treatment dose 500 μg/mL, read-out: Relative inhibition rate (%) In vivo therapy): 43.9%
- inhibition of growth at 50 mg/kg ([8]; Rhizoctonia solani, 96 h): 33.9%
- mortality at 600 mg/kg ([9]; Helicoverpa armigera, in Gossypium hirsutum, read-out: Cotton bollworm Mortality (%)): 30%
- inhibition of growth at 50 mg/kg ([10]; Rhizoctonia, 96 h): 59.4%
- inhibition of growth at 50 mg/kg ([11]; Fusarium, 96 h): 28.6%
- inhibition of growth at 50 mg/kg ([12]; Mycosphaerella arachidis, 96 h): 50%
- anti-TMV activity compared with ningnanmycin [13]: equivalent to the activity of commercial variety ningnanmycin
- mortality at 5 mg/kg [14, 27]: 60%
- mortality at 10 mg/kg [14, 27]: 100%
- activity against culex pipiens larvae (in words) [14]: still show high activity
- inhibition of growth at 50 mg/kg ([15]; Phytophthora capsici, 96 h): 60.6%
- mortality at 600 mg/kg [16]: 55%
- inhibition at 100 µg/mL ([17]; Tobacco mosaic virus, treatment dose 100 μg/mL, read-out: Relative inhibition rate (%) In vivo inactivation): 25.7%
- inhibition at 500 µg/mL ([17]; Tobacco mosaic virus, treatment dose 500 μg/mL, read-out: Relative inhibition rate (%) In vivo inactivation): 50.4%
- inhibition at 100 µg/mL ([18]; Tobacco mosaic virus, treatment dose 100 μg/mL, read-out: Relative inhibition rate (%) In vivo protection): 18.6%
- inhibition at 500 µg/mL ([18]; Tobacco mosaic virus, treatment dose 500 μg/mL, read-out: Relative inhibition rate (%) In vivo protection): 47.9%
- inhibition of growth at 50 mg/kg ([19]; Botrytis cinerea, 96 h): 68.2%
- inhibition of growth at 50 mg/kg ([20]; Fusarium fujikuroi, 96 h): 42.9%
- activity against armyworms, cotton bollworms and corn borers (in words) [21]: broad-spectrum activity
- inhibition of growth at 50 mg/kg ([22]; Fusarium, 96 h, read-out: Bactericidal activity (%) Fusarium graminearumt): 21.4%
- inhibition at 50 mg/kg ([23]; read-out: Bactericidal activity (%) Bipolaria maydis): 26.3%
- inhibition of growth at 50 mg/kg ([24]; Sclerotinia, 96 h): 68%

SMILES: C[C@@H]1N[C@H](C(=O)NN=Cc2ccc(C(C)(C)C)cc2)Cc2c1[nH]c1ccccc21 [Ic-2, (1S, 3S)—N′-(4-tert-butylbenzylidene)-1-methyl-2,3,4,9-tetrahydropyridino [3,4-b] indol-3-formylhydrazine]
- Armyworm Mortality (%) [1]: 10%
- Bactericidal activity (%) Colletotrichum orbiculare [2]: 77.8%
- Bactericidal activity (%) potato late blight [3]: 76.0%
- Relative inhibition rate (%) In vitro activity ([4]; treatment dose 100 μg/mL): 17.6%
- Relative inhibition rate (%) In vitro activity ([4]; treatment dose 500 μg/mL): 52.4%
- Bactericidal activity (%) Macrophoma kawatsukai [5]: 97.2%
- Bactericidal activity (%) Alternaria solani [6]: 70.0%
- Relative inhibition rate (%) In vivo therapy ([7]; treatment dose 100 μg/mL): 18.2%
- Relative inhibition rate (%) In vivo therapy ([7]; treatment dose 500 μg/mL): 47%
- Bactericidal activity (%) Rhizoctonia solani [8]: 88.2%
- Cotton bollworm Mortality (%) [9]: 30%
- Bactericidal activity (%) Rhizoctonia cereali [10]: 98.0%
- Bactericidal activity (%) Cucumber fusarium wilt [11]: 65.4%
- Bactericidal activity (%) Cercospora arachidicola [12]: 82.4%
- Corn borer Mortality (%) [25]: 5%
- Mosquito larvae Mortality (%) ([14]; concentration 10 mg/kg, 24 h): 20%
- Bactericidal activity (%) Phytophthora capsici [15]: 73.7%
- Relative inhibition rate (%) In vivo inactivation ([17]; treatment dose 100 μg/mL): 13.3%
- Relative inhibition rate (%) In vivo inactivation ([17]; treatment dose 500 μg/mL): 50.3%
- bactericidal activity against fungi (in words) [26]: very good bactericidal activity against various kinds of fungi
- Relative inhibition rate (%) In vivo protection ([18]; treatment dose 100 μg/mL): 21.7%
- Relative inhibition rate (%) In vivo protection ([18]; treatment dose 500 μg/mL): 53.8%
- Bactericidal activity (%) Botrytis cinerea [19]: 86.4%
- Bactericidal activity (%) Fusarium fujikuroi [20]: 57.1%
- Bactericidal activity (%) Fusarium graminearumt [22]: 41.4%
- Bactericidal activity (%) Bipolaria maydis [23]: 84.0%
- Bactericidal activity (%) Sclerotinia scleotiorum [24]: 94.1%

SMILES: C[C@@H]1N[C@H](C(=O)NN=Cc2ccc[nH]2)Cc2c1[nH]c1ccccc21 [Ic-19, (1S, 3S)—N′-(pyrrole-2-methylene)-1-methyl-2,3,4,9-tetrahydropyridino [3,4-b] indol-3-formylhydrazine]
- Armyworm Mortality (%) [1]: 70%
- Bactericidal activity (%) Colletotrichum orbiculare [2]: 29.6%
- Bactericidal activity (%) potato late blight [3]: 24.0%
- Relative inhibition rate (%) In vitro activity ([4]; treatment dose 100 μg/mL): 8.8%
- Relative inhibition rate (%) In vitro activity ([4]; treatment dose 500 μg/mL): 49.5%
- Bactericidal activity (%) Macrophoma kawatsukai [5]: 97.2%
- Bactericidal activity (%) Alternaria solani [6]: 15.0%
- Relative inhibition rate (%) In vivo therapy ([7]; treatment dose 100 μg/mL): 27.8%
- Relative inhibition rate (%) In vivo therapy ([7]; treatment dose 500 μg/mL): 63.4%
- Bactericidal activity (%) Rhizoctonia solani [8]: 32.9%
- Cotton bollworm Mortality (%) [9]: 50%
- Bactericidal activity (%) Rhizoctonia cereali [10]: 74.5%
- Bactericidal activity (%) Cucumber fusarium wilt [11]: 23.1%
- Bactericidal activity (%) Cercospora arachidicola [12]: 23.5%
- Corn borer Mortality (%) [25]: 60%
- anti-TMV activity compared with ningnanmycin [13]: equivalent to the activity of commercial variety ningnanmycin
- activity against culex pipiens larvae (in words) [14]: still show high activity
- Mosquito larvae Mortality (%) ([14]; concentration 5 mg/kg, 24 h): 80%
- Mosquito larvae Mortality (%) ([14]; concentration 10 mg/kg, 24 h): 100%
- Bactericidal activity (%) Phytophthora capsici [15]: 42.1%
- Relative inhibition rate (%) In vivo inactivation ([17]; treatment dose 100 μg/mL): 20.2%
- Relative inhibition rate (%) In vivo inactivation ([17]; treatment dose 500 μg/mL): 61.3%
- Relative inhibition rate (%) In vivo protection ([18]; treatment dose 100 μg/mL): 30%
- Relative inhibition rate (%) In vivo protection ([18]; treatment dose 500 μg/mL): 54.7%
- Bactericidal activity (%) Botrytis cinerea [19]: 22.7%
- Bactericidal activity (%) Fusarium fujikuroi [20]: 14.3%
- activity against armyworms, cotton bollworms and corn borers (in words) [21]: broad-spectrum activity
- Bactericidal activity (%) Fusarium graminearumt [22]: 41.4%
- Bactericidal activity (%) Bipolaria maydis [23]: 28.0%
- Bactericidal activity (%) Sclerotinia scleotiorum [24]: 58.8%
